Patent publication US8063225B2, “Tricyclic compound derivatives useful in the treatment of neoplastic diseases, inflammatory disorders and immunomodulatory disorders” (Chembridge Corporation, priority 2006, dated 2011)

Columns and labels:
[1] = target: T1, InsR (Homo sapiens, UniProt P06213); assay: Tyrosine kinase assay (Kinase-Glo or AlphaScreen), InsR; conditions: biochemical tyrosine kinase assay
T1 construct: 6×His- or GST-tagged kinase domain fragments of the corresponding RTKs expressed in baculovirus system; host or cells: baculovirus system
T1 sequence (P06213 1023-1298 limits assumed, species assumed): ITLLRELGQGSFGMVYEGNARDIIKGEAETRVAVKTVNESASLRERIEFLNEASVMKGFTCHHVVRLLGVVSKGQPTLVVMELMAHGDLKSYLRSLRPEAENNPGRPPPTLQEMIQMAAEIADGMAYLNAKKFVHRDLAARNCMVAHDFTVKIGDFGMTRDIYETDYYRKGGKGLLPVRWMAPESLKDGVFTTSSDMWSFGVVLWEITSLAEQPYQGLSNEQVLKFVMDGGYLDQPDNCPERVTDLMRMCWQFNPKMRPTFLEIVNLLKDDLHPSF
Description: (§1) To determine inhibition of several tyrosine kinases, such as IGF1R, InsR, Alk, TrkA and Jak2, kinase assays are conducted using either Kinase-Glo (Promega) or AlphaScreen (PerkinElmer) kinase assay platforms. The Kinase-Glo Luminescent Kinase Assay is a homogeneous method for measuring kinase activity by determining the amount of ATP remaining after a kinase reaction. The luminescent signal is proportional to the amount of ATP and inversely proportional to the amount of kinase activity. Tyrosine kinase PT66 AlphaScreen Assay is a high-sensitivity homogeneous, anti-phosphotyrosine antibody-mediated luminescent proximity method measuring, incorporation of phosphate in synthetic poly(Glu-Tyr) substrate. The kinase preparations used consist of purified recombinant, 6×His- or GST-tagged kinase domain fragments of the corresponding RTKs expressed in baculovirus system.
(§2) The IGF1R tyrosine kinase is assayed in Kinase-Glo ATP depletion assay using the synthetic polymer poly(Glu-Tyr, 4:1) (Sigma Chemicals) as a phosphoacceptor substrate. Each reaction mixture consists of a total volume of 10 μl and contains 40 ng of the enzyme, 5 μg of poly(Glu-Tyr), 10 μM of ATP and variable concentrations of test compounds. The mixtures also contain 50 mM Tris-HCl, pH 7.5; 5 mM MgCl2; 5 mM MnCl2; 2 mM DTT and 0.01% Tween 20. The reaction mixtures are incubated at 37° C. for 60 minutes and residual concentration of ATP in the mixture is determined by adding luciferase-containing Kinase-Glo (Promega) development reagent and counting luminescence levels using Fusion Universal Microplate Analyzer (PerkinElmer). Tested compounds are dissolved in dimethyl sulfoxide to a stock concentration of 10 mM and are typically evaluated in the assay at eight concentrations in 1 nM to 20 μM range, each in quadruplicate. […] IC50 values are derived by non-linear regression analysis using Prism 3.0 software (Graphpad Software). Other tyrosine kinases are assayed according to the same protocol after titrating amount of the enzyme to provide optimal signal-to-noise ratio and no more than 30% of total ATP consumption in the reaction conditions used.
(§3) The IGF1R tyrosine kinase is assayed in Phosphotyrosine (PT66 or PT 100) AlphaScreen chemiluminescent assay (PerkinElmer) according to the manufacturerer's recommendations. Each kinase reaction mixture consists of a total volume of 15 μl and contains 0.1-1 ng of the enzyme, 7 ng of biotinylated poly(Glu-Tyr) (Cis-Bio), 10 μM of ATP and variable concentrations of test compounds. The mixtures also contain 50 mM Tris-HCl, pH 7.5; 5 mM MgCl2; 5 mM MnCl2; 2 mM DTT and 0.01% Tween 20. The reaction mixtures are incubated at room temperature for 30 minutes. Ten (10) μl of the mixture of […] and donor beads (as supplied by the manufacturer) is then added to the reaction and the incubation is continued for an additional 60 minutes.

[2] = target: T2, IGF1R tyrosine kinase (Homo sapiens, UniProt P08069); assay: IGF1R tyrosine kinase assay (Kinase-Glo ATP depletion or PT66/PT100 AlphaScreen); conditions: biochemical tyrosine kinase assay
T2 construct: 6×His- or GST-tagged kinase domain fragments of the corresponding RTKs expressed in baculovirus system; host or cells: baculovirus system
T2 sequence (P08069 999-1274 limits assumed): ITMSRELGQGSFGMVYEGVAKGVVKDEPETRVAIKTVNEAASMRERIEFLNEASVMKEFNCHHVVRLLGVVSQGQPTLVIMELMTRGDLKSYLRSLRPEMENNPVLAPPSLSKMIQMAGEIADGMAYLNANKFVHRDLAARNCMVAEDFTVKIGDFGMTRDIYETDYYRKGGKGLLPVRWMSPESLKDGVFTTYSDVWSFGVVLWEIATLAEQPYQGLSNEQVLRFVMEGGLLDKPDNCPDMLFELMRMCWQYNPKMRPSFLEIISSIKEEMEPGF
Description: as §1, §2, §3

[3] = system: K562; assay: Cell proliferation inhibition, Cell Titer-Glo, K562; format: cell-based; conditions: Homo sapiens; cell proliferation assay, K562 cells
Excerpt: (§4) IGF1R and other tyrosine kinase inhibitors can inhibit the proliferation of certain cancer cell lines indicating their possible therapeutic utility for treating the corresponding cancer types. Cancer cell lines of interest and control normal lines, including CHO, HEK293, BA/F3, COLO205, PC3, DU145, MCF7, Panc1, ACHN, Hep G2, H460, K562, TT, U87-MG, CAOV-3, SK-MEL5, Karpas 299 and human multiple myeloma cell lines H929, MM1s, MM1r, UTMC2, CPM2, KMS11, My5, KMS12PE, My7, JJN3, KMS18, U266, SKMM2, RPMI-8226 are plated in white, clear-bottomed 384-well cell culture plates at 2500-5000 cells per well and supplied with dilutions of tested compounds After a desired period of time (typically 3 days), the number of viable cells is quantitated by using Cell Titer-Glo Luminescent Cell Viability Assay (Promega), a cell proliferation assay system based on detection of total amount of ATP present as a measure of cell metabolic activity. The plated cells are mixed with the Cell Titer-Glo developing reagent and counted in a luminescence multiwell plate reader according to the standard manufacturer's protocol to generate IC50 curves for cell proliferation inhibition. Results are typically reported as percent of growth (% viability =(OD72h(compound)−ODday0))/(OD72h(no compound)−ODday0). Alternatively, viable cells are quantitated by using the conventional colorimetric MTT assay. The MTT assay is based on the cleavage of the yellow tetrazolium salt MTT to purple formazan crystal by metabolic active cells. The formazan is then solubilized, and the concentration determined by optical density at 570 nm. The cells plated and incubated with a compound as described above are supplemented with the solution of MTT and incubated for 2-3 hours. The growth medium is removed and dimethyl sulfoxide is added into each well to dissolve the formazan. The absorbance is measured on an ELISA plate reader with a test wavelength of 570 nm and a background subtraction wavelength of 630 nm to obtain sample signal (OD570-OD630). […] The results are reported in terms of IC50 value for a particular compound and a cell line in the standard 3-day proliferation assay using Cell Titer-Glo. […] The results are reported in terms of IC50 value for a particular compound and a cell line in the standard 3-day proliferation assay using MTT assay.

[4] = system: Ba/F3; assay: Cell proliferation inhibition, Cell Titer-Glo, Ba/F3; format: cell-based; conditions: Mus musculus, BaF3; cell proliferation assay, Ba/F3 cells
Excerpt: as §4

[5] = system: Karpas-299; assay: Cell proliferation inhibition, Cell Titer-Glo, Karpas-299; format: cell-based; conditions: Homo sapiens; cell proliferation assay, Karpas-299 cells
Excerpt: as §4

[6] = target: T3, Jak2 (Homo sapiens, UniProt O60674); assay: Tyrosine kinase assay (Kinase-Glo or AlphaScreen), Jak2; conditions: biochemical tyrosine kinase assay
T3 construct: 6×His- or GST-tagged kinase domain fragments of the corresponding RTKs expressed in baculovirus system; host or cells: baculovirus system
T3 sequence (O60674 849-1124 limits assumed, species assumed): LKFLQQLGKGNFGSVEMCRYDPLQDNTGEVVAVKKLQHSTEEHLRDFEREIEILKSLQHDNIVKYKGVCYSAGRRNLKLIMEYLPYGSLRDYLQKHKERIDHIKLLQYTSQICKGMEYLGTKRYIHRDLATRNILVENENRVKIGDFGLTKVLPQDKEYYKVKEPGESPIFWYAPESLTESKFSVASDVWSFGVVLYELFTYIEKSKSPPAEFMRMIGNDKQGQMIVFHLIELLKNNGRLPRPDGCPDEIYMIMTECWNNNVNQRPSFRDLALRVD
Description: as §1, §2, §3

[7] = target: T4, Alk (Homo sapiens, UniProt Q9UM73); assay: Tyrosine kinase assay (Kinase-Glo or AlphaScreen), Alk; conditions: biochemical tyrosine kinase assay
T4 construct: 6×His- or GST-tagged kinase domain fragments of the corresponding RTKs expressed in baculovirus system; host or cells: baculovirus system
T4 sequence (Q9UM73 1116-1392 limits assumed, species assumed): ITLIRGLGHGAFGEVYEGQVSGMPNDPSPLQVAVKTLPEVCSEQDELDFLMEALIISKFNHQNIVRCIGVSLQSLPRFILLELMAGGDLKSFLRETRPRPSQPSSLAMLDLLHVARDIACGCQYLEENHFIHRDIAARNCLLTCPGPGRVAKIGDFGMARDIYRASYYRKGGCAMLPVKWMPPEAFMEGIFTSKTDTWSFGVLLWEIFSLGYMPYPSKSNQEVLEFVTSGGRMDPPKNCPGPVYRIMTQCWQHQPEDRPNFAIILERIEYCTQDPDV
Description: as §1, §2, §3

SMILES	IC50 [1]	IC50 [2]	IC50 [3]	IC50 [4]	IC50 [5]	IC50 [6]	IC50 [7]
Cc1ncccc1OC[C@H](O)CNc1ccnc(O)c1-c1nc2cc3c(cc2[nH]1)C(=O)N(C1CCN(C)CC1)C3=O [compound 71]	0.5 to 5 µM	0.5 to 5 µM	> 15 µM	> 15 µM	> 15 µM	5 to 15 µM	5 to 15 µM
Cc1ccc(Cl)cc1OC[C@@H](O)CNc1ccnc(O)c1-c1nc2cc3c(cc2[nH]1)C(=O)N(C1CCN(C)CC1)C3=O [compound 56]	0.5 to 5 µM	0.5 to 5 µM	0.5 to 5 µM	0.5 to 5 µM	0.5 to 5 µM	0.5 to 5 µM	0.5 to 5 µM
O=C1c2cc3nc(-c4c(NC[C@@H](O)c5cccc(Cl)c5)cc[nH]c4=O)[nH]c3cc2C(=O)N1CCO [compound 43]	0.5 to 5 µM	0.5 to 5 µM	5 to 15 µM	> 15 µM	5 to 15 µM	0.5 to 5 µM	> 15 µM
CN1CCC(N2C(=O)c3cc4nc(-c5c(NNC(=O)C(O)c6ccccc6)ccnc5O)[nH]c4cc3C2=O)CC1 (stereo not shown) [compound 67]	5 to 15 µM	> 15 µM	> 15 µM	> 15 µM	> 15 µM	0.5 to 5 µM	5 to 15 µM
CN(C)CCc1ncccc1OC[C@H](O)CNc1ccnc(O)c1-c1nc2cc3c(cc2[nH]1)C(=O)N(C1CCN(C)CC1)C3=O [compound 72]	0.5 to 5 µM	0.5 to 5 µM	> 15 µM	> 15 µM	> 15 µM	0.5 to 5 µM	0.5 to 5 µM
Cc1ccc(Cl)cc1OC[C@H](O)CNc1ccnc(O)c1-c1nc2cc3c(cc2[nH]1)C(=O)N(C1CCN(C)CC1)C3=O [compound 55]	0.5 to 5 µM	< 0.5 µM	0.5 to 5 µM	0.5 to 5 µM	0.5 to 5 µM	0.5 to 5 µM	0.5 to 5 µM
COc1cc(F)ccc1OC[C@@H](O)CNc1ccnc(O)c1-c1nc2cc3c(cc2[nH]1)C(=O)N(C1CCN(C)CC1)C3=O [compound 58]	0.5 to 5 µM	0.5 to 5 µM	5 to 15 µM	5 to 15 µM	5 to 15 µM	5 to 15 µM	0.5 to 5 µM
Cc1ccc(OCC(O)CNc2ccnc(O)c2-c2nc3cc4c(cc3[nH]2)C(=O)N(CC(C)(C)CN(C)C)C4=O)c(C)c1 (stereo not shown) [compound 62]	0.5 to 5 µM	< 0.5 µM	0.5 to 5 µM	5 to 15 µM	5 to 15 µM	5 to 15 µM	5 to 15 µM
CN1CCC(N2C(=O)c3cc4nc(-c5c(NN)ccnc5O)[nH]c4cc3C2=O)CC1 [compound 65]	5 to 15 µM	5 to 15 µM	> 15 µM	> 15 µM	> 15 µM	5 to 15 µM	> 15 µM
Cc1ccc(OC[C@H](O)CNc2ccnc(O)c2-c2nc3cc4c(cc3[nH]2)C(=O)N(C2CCN(C)CC2)C4=O)c(C)n1 [compound 68]	0.5 to 5 µM	< 0.5 µM	> 15 µM	> 15 µM	> 15 µM	0.5 to 5 µM	5 to 15 µM

Other lines, results leading:

IC50 [1]	IC50 [2]	IC50 [3]	IC50 [4]	IC50 [5]	IC50 [6]	IC50 [7]	SMILES
< 0.5 µM	< 0.5 µM	> 15 µM	> 15 µM	> 15 µM	0.5 to 5 µM	0.5 to 5 µM	CN1CCC(N2C(=O)c3cc4nc(-c5c(NC[C@@H](O)COc6cccc7c6OC(F)(F)C(F)O7)cc[nH]c5=O)[nH]c4cc3C2=O)CC1 (stereo partly shown) [compound 83]
0.5 to 5 µM	0.5 to 5 µM	0.5 to 5 µM	0.5 to 5 µM	0.5 to 5 µM	0.5 to 5 µM	0.5 to 5 µM	CN1CCC(N2C(=O)c3cc4nc(-c5c(NC[C@@H](O)COc6cccc(Cl)c6)ccnc5O)[nH]c4cc3C2=O)CC1 [compound 75]
0.5 to 5 µM	0.5 to 5 µM	5 to 15 µM	5 to 15 µM	0.5 to 5 µM	0.5 to 5 µM	0.5 to 5 µM	CN1CCC(N2C(=O)c3cc4nc(-c5c(NC[C@@H](O)Cn6ccc7c(C#N)cccc76)cc[nH]c5=O)[nH]c4cc3C2=O)CC1 [compound 112]
0.5 to 5 µM	< 0.5 µM	> 15 µM	> 15 µM	> 15 µM	0.5 to 5 µM	0.5 to 5 µM	CN(C)CCN1CCC(N2C(=O)c3cc4nc(-c5c(NC[C@@H](O)COc6c(F)ccc(Cl)c6F)cc[nH]c5=O)[nH]c4cc3C2=O)CC1 [compound 128]
5 to 15 µM	0.5 to 5 µM	> 15 µM	> 15 µM	> 15 µM	0.5 to 5 µM	0.5 to 5 µM	CN1CCC(N2C(=O)c3cc4nc(-c5c(NC[C@@H](O)COc6ccc(C#N)c(Cl)c6)ccnc5O)[nH]c4cc3C2=O)CC1 [compound 77]
< 0.5 µM	< 0.5 µM	0.5 to 5 µM	0.5 to 5 µM	0.5 to 5 µM	0.5 to 5 µM	0.5 to 5 µM	Cc1ccc(OC[C@H](O)CNc2ccnc(O)c2-c2nc3cc4c(cc3[nH]2)C(=O)N(C2CCN(C)CC2)C4=O)c2c1CCC2 [compound 85]
0.5 to 5 µM	0.5 to 5 µM	5 to 15 µM	> 15 µM	5 to 15 µM	0.5 to 5 µM	< 0.5 µM	COc1ccc2c(c1)cc(C)n2C[C@H](O)CNc1ccnc(O)c1-c1nc2cc3c(cc2[nH]1)C(=O)N(C1CCN(C)CC1)C3=O [compound 100]
< 0.5 µM	0.5 to 5 µM	> 15 µM	> 15 µM	> 15 µM	5 to 15 µM	5 to 15 µM	Cc1ccc(OCC(O)CNc2cc[nH]c(=O)c2-c2nc3cc4c(cc3[nH]2)C(=O)N(C2CCN(C)CC2)C4=O)cc1C (stereo not shown) [compound 104]
< 0.5 µM	< 0.5 µM	> 15 µM	> 15 µM	> 15 µM	0.5 to 5 µM	0.5 to 5 µM	Cc1c(Cl)cccc1OC[C@H](O)CNc1cc[nH]c(=O)c1-c1nc2cc3c(cc2[nH]1)C(=O)N(CC1CCN(CCO)CC1)C3=O [compound 119]
